According to paper PMC6934184, “Selective DNA-PKcs inhibition extends the therapeutic index of localized radiotherapy and chemotherapy” (The Journal of Clinical Investigation, 2019):

Molecular target: T1, FLT1 (VEGFR1) (Homo sapiens, UniProt P17948)
T1 construct: purchased Thermo Fisher Scientific (Life Technologies) SelectScreen
Assay: SelectScreen Z'LYTE
Type: biochemical
Outline: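 SelectScreen broad panel; activity (Z'LYTE, Adapta) plus binding formats. ATP: Km app for CSF1R Z'LYTE; 10 for CAMK1 Adapta. Readout = % per kinase.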

T1 sequence (P17948 27-1338): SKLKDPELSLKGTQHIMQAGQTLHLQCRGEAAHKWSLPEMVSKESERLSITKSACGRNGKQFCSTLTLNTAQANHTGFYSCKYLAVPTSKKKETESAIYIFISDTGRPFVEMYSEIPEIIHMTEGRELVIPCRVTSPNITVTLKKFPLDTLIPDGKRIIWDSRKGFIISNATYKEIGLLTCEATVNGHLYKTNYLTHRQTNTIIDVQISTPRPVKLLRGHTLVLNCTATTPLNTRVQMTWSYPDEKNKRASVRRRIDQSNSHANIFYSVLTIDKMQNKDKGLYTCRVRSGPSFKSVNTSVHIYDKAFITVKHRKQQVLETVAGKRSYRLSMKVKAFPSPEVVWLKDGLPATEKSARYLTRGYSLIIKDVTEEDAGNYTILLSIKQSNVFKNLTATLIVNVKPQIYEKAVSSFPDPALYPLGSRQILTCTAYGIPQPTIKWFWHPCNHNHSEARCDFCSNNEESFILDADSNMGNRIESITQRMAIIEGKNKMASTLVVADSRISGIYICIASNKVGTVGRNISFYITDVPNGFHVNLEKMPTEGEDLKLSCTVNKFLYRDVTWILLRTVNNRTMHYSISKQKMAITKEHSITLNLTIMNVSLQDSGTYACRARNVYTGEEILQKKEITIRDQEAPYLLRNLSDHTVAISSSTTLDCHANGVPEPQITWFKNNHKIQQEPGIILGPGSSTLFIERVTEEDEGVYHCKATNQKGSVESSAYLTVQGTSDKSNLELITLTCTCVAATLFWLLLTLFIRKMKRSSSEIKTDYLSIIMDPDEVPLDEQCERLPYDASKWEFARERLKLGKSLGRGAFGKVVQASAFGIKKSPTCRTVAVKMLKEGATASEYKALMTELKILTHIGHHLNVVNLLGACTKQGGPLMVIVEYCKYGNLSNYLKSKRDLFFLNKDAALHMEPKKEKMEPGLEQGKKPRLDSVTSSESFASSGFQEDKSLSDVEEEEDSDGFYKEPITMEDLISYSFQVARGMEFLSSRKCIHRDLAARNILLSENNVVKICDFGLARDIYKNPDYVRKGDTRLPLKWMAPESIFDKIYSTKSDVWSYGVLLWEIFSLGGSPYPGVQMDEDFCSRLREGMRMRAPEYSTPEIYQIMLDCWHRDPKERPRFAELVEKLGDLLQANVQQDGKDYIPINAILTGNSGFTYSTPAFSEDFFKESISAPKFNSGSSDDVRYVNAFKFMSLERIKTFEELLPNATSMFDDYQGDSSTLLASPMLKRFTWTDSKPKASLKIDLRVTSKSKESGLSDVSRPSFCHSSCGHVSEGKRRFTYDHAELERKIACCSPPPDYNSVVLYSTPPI

CN(C(=O)CN1CCOCC1)c1ccc2sc3c(-c4cccc5c(=O)cc(N6CC7CCC(C6)O7)oc45)cccc3c2c1 [NU5455]
inhibition at 1 µM: 6.5%
